From PubChem BioAssay (NCI)
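At the GI50, growth is halved. TGI: total growth inhibition.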

What was measured:
Assay in all cases: NCI-60 cell line screen, 384-well format
SF-268 CNS = test system: SF-268 CNS
MDA-MB-435 melanoma = test system: MDA-MB-435 melanoma
TK-10 renal = test system: TK-10 renal
HS 578T breast = test system: HS 578T breast
UACC-257 melanoma = test system: UACC-257 melanoma
RXF 393 renal = test system: RXF 393 renal
COLO 205 colon = test system: COLO 205 colon
OVCAR-3 ovarian = test system: OVCAR-3 ovarian
KM12 colon = test system: KM12 colon
HCT-116 colon = test system: HCT-116 colon
IGROV1 ovarian = test system: IGROV1 ovarian
786-0 renal = test system: 786-0 renal
SNB-19 CNS = test system: SNB-19 CNS
EKVX NSCLC = test system: EKVX NSCLC
NCI-H23 lung = test system: NCI-H23 lung
HL-60(TB) leukemia = test system: HL-60(TB) leukemia
SK-MEL-5 melanoma = test system: SK-MEL-5 melanoma
UO-31 renal = test system: UO-31 renal
U251 glioblastoma = test system: U251 glioblastoma
RPMI-8226 leukemia = test system: RPMI-8226 leukemia
SK-MEL-28 melanoma = test system: SK-MEL-28 melanoma
M14 melanoma = test system: M14 melanoma
OVCAR-8 ovarian = test system: OVCAR-8 ovarian
SW-620 colon = test system: SW-620 colon
PC-3 prostate = test system: PC-3 prostate
SR leukemia = test system: SR leukemia
MALME-3M melanoma = test system: MALME-3M melanoma
A549 NSCLC = test system: A549 NSCLC
NCI-H322M lung = test system: NCI-H322M lung

O=C(NOCCO)c1ccc2cncn2c1Nc1ccc(I)cc1F
GI50 (SF-268 CNS): 9410 nM | TGI (SF-268 CNS): 22900 nM | GI50 (MDA-MB-435 melanoma): < 10 nM | TGI (MDA-MB-435 melanoma): 21100 nM | GI50 (TK-10 renal): 70.4 nM | TGI (TK-10 renal): 27400 nM | GI50 (HS 578T breast): 1220 nM | TGI (HS 578T breast): 7010 nM | GI50 (UACC-257 melanoma): < 10 nM | TGI (UACC-257 melanoma): < 10 nM | GI50 (RXF 393 renal): 196 nM | TGI (RXF 393 renal): 15100 nM | GI50 (COLO 205 colon): < 10 nM | TGI (COLO 205 colon): 25.8 nM | GI50 (OVCAR-3 ovarian): 11200 nM | TGI (OVCAR-3 ovarian): 29100 nM | GI50 (KM12 colon): < 10 nM | TGI (KM12 colon): 17900 nM | GI50 (HCT-116 colon): < 10 nM | TGI (HCT-116 colon): 191 nM | GI50 (IGROV1 ovarian): < 10 nM | TGI (IGROV1 ovarian): 12600 nM | GI50 (786-0 renal): 1230 nM | TGI (786-0 renal): 20700 nM | GI50 (SNB-19 CNS): 87.8 nM | TGI (SNB-19 CNS): 20600 nM | GI50 (EKVX NSCLC): 153 nM | TGI (EKVX NSCLC): 17800 nM | GI50 (NCI-H23 lung): < 10 nM | TGI (NCI-H23 lung): 77 nM | GI50 (HL-60(TB) leukemia): < 10 nM | TGI (HL-60(TB) leukemia): < 10 nM | GI50 (SK-MEL-5 melanoma): < 10 nM | TGI (SK-MEL-5 melanoma): 15800 nM | GI50 (UO-31 renal): 40.8 nM | TGI (UO-31 renal): 20200 nM | GI50 (U251 glioblastoma): 46.6 nM | TGI (U251 glioblastoma): 10600 nM | GI50 (RPMI-8226 leukemia): 2160 nM | TGI (RPMI-8226 leukemia): 20900 nM | GI50 (SK-MEL-28 melanoma): < 10 nM | TGI (SK-MEL-28 melanoma): < 10 nM | GI50 (M14 melanoma): < 10 nM | TGI (M14 melanoma): < 10 nM | GI50 (OVCAR-8 ovarian): 2600 nM | TGI (OVCAR-8 ovarian): 18200 nM | GI50 (SW-620 colon): < 10 nM | TGI (SW-620 colon): 12500 nM | GI50 (PC-3 prostate): 18100 nM | TGI (PC-3 prostate): 35400 nM | GI50 (SR leukemia): 87 nM | TGI (SR leukemia): 2390 nM | GI50 (MALME-3M melanoma): < 10 nM | TGI (MALME-3M melanoma): < 10 nM | GI50 (A549 NSCLC): 26 nM | TGI (A549 NSCLC): 11100 nM | GI50 (NCI-H322M lung): 32.5 nM | TGI (NCI-H322M lung): 15500 nM
